Test results reported in patent US8343978B2, “Fast onset orodispersable tablets” (Adds Pharmaceuticals LLC, priority 2008, dated 2013).
“Also recorded” adds a separate entry of the source.

Key:
[1] = Cloud point (LCST) measurement by spectrophotometry, light transmission at 750 nm; format: physicochemical; conditions: 2 wt % hydroxypropylcellulose; for Effect of modifier on the LCST of hydroxypropylcellulose (Klucel EF): 0.2M sodium citrate, 0.2M magnesium sulfate, 0.2M potassium phosphate monobasic, 0.02M calcium sulfate, 1M mannitol, 1M xylitol
Excerpt: The critical solution temperature of a polymer can be measured by spectrophotometry, by differential scanning calorimetry, or by nuclear magnetic resonance spectroscopy. For example, the spectrophotometrical method can be used to measure the cloud point of an LCST polymer. “Cloud point” generally refers to the temperature where the polymer solution in an aqueous medium becomes cloudy, indicating initiation of precipitation or flocculation of the polymer. The spectrophotometical method, as described as follows, can be adopted to screen various combinations of LCST polymers and modifiers to determine whether a modifier is capable of reducing the LCST of a polymer to about 37° C. or lower.
An LCST polymer is dissolved in distilled water and, optionally, separate solutions of LCST modifiers at various concentrations. Each polymer or polymer/modifier test solution is placed in a separate container, such as a bottle or a beaker, and each container is placed in a water bath. The water bath is equipped with a temperature regulator, and the temperature of the bath is set at approximately 60° C. (the temperature of the bath can start at a high temperature or, alternatively, the temperature of the water bath can start low and be increased gradually at a rate of, e.g., 1° C./min). While in the water bath, each test solution is circulated through a 1-cm flowthrough quartz cuvette using a peristaltic pump (Masterflex) at a flow rate of 50 ml/min. The temperature of the test solution is monitored using a thermocouple, the lead of which is inserted into the test solution in the container. Alternatively, the lead of the thermocouple can be inserted into the cuvette through tubing connecting the container and the cuvette. The light transmission (T %) of each solution is measured spectrophotometrically with a UV spectrophotometer at a wavelength of 750 nm. Initially, spectrophotometric measurements are taken at 2-3° C. intervals. Near the cloud point of a particular polymer or polymer/modifier combination, spectrophotometric measurements are taken more frequently (e.g., at 1 ° C. intervals). The cloud point is ascertained as the temperature at which the light transmission is 90% of the transmission at room temperature.

[2] = Tablet disintegration time in deionized water at 37° C., disintegration tester; format: physicochemical; conditions: 500 mg tablets, 1.3 cm diameter; 300 ml DI water at 37° C., 200 rpm paddle; n=3
Protocol: To compare the cohesive properties of the modifiers tested in Example 2, tablets containing 95 wt % of each potential LSCT modifier and 5 wt % of cross-linked sodium carboxylmethylcellulose (Croscarmellose sodium) were tested for their average disintegration time in aqueous medium using a disintegration tester (LIJ-2, Vanguard Pharmaceutical Machinery, Inc. USA). The potential LCST modifier and Croscarmellose sodium were dry-blended in a vial and 500 mg of each blend were compressed under 1 metric ton of compression pressure using a 1.3 cm diameter rounding tool. The resulting tablets were placed into 300 ml of deionized (DI) water (at 37° C., agitated using a 200 rpm paddle) and the disintegration times of the tablets (i.e., the time that it took for each tablet to completely dissolve) were measured. Disintegration times were measured for three tablets of each modifier and average disintegration rates and standard deviates were determined. […]
An orally disintegrating placebo tablet comprising hydroxypropylcellulose as the LCST polymer and calcium sulfate as the modifier was manufactured as follows. […] The mean disintegration time of the tablets (n=3) was 35 seconds, with standard deviation of 4 seconds, as measured in de-ionized water at 37° C. using a disintegration tester (LIJ-2, Vanguard Pharmaceutical Machinery, Inc. USA). […]

SMILES | Effect of modifier on the LCST of hydroxypropylcellulose (Klucel EF) [1] | Effect of electrolyte modifier on the LCST of hydroxypropylcellulose, compared at equal concentration ([1]; electrolytes at 0.02M) | Disintegration time of tablets of 95 wt % modifier and 5 wt % Croscarmellose sodium [2] | Effect of modifier on the LCST of hydroxypropylcellulose (Klucel EF) ([1]; listed as potassium phosphate (monobasic))
O=S(=O)([O-])[O-].[Ca+2] [calcium sulfate] | significantly reduce the LCST; also recorded: capable of reducing the LCST of hydroxypropylcellulose | most effective reducer; also recorded: strongest effect on reducing the LCST | one | –
O=S(=O)([O-])[O-].[Mg+2] [magnesium sulfate] | significantly reduce the LCST; also recorded: capable of reducing the LCST of hydroxypropylcellulose | – | – | –
OC[C@@H](O)[C@@H](O)[C@H](O)[C@H](O)CO [mannitol] | significantly reduce the LCST; also recorded: capable of reducing the LCST of hydroxypropylcellulose | – | – | –
O=P([O-])(O)O.[K+] [potassium phosphate monobasic] | capable of reducing the LCST of hydroxypropylcellulose | – | one | significantly reduce the LCST
O=C([O-])CC(O)(CC(=O)[O-])C(=O)[O-].[Na+].[Na+].[Na+] [sodium citrate] | significantly reduce the LCST; also recorded: capable of reducing the LCST of hydroxypropylcellulose | – | – | –
OC[C@@H](O)[C@H](O)[C@@H](O)CO [xylitol] | significantly reduce the LCST; also recorded: capable of reducing the LCST of hydroxypropylcellulose | – | – | –
